Reference: patent US10513521B2, “Compositions and methods for inhibiting BMP” (The Brigham and Women's Hospital, Inc., priority 2014, dated 2019)
Residue numbers refer to the chain shown, from its start. Values joined by “and” are separate entries in the source; they are usually repeats but may differ in a detail not shown here. Identical values can stand only once.

Legend:
ALK2 [1] = target: T1, ALK2 (Mus musculus, UniProt P37172); assay: HTRF pSMAD1 cell-based ALK2 assay (C2C12 cells, BMP6 as agonist)
T1 construct: The C2C12 cell line was selected for the measurement of ALK2 activity using BMP6 as the agonist; host or cells: C2C12
T1 sequence (P37172 21-509): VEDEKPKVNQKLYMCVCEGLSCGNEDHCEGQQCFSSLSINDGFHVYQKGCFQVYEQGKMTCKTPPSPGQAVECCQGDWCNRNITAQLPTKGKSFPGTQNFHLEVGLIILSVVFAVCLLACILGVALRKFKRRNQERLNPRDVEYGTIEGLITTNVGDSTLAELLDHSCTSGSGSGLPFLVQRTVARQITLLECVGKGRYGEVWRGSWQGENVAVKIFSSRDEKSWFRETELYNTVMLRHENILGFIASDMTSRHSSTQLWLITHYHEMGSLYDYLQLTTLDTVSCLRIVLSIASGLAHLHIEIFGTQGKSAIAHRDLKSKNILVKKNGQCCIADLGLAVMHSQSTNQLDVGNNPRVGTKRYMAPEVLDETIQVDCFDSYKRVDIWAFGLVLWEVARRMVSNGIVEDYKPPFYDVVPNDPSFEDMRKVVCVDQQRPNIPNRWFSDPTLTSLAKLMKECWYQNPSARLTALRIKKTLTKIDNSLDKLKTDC
Procedure, shortened: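 Phospho-SMAD1 HTRF readout, detection incubated overnight at room temperature. Before that: starved cells in 0.1% FBS for 4 h, 30 min compound pretreatment, then 30 min agonist, BMP6 on C2C12 or BMP9 on BAOEC.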

ALK2 [2] = target: T1, ALK2; assay: In-cell Western ALK2 assay (C2C12 cells, BMP6 as agonist); format: cell-based; conditions: read-out: BMP6 ICW
Text: 3. In-Cell Western ALK1 and ALK2 Assays in 384-Well Plate Format.
We also optimized cell-based In-cell Western assays for measurements of ALK1 and ALK2 activities that were used to determine compound activities in these two kinases. The cell lines and agonists used were same as described in above cell-based HTRF ALK1 and ALK2 assays. The initial cell plating and compound treatment were also same. The main difference is the detection of phosphorylation status of SMAD1. In t-cell Western assay, the cells were fixed and phosphorylation status of SMAD1 was detected by the ELISA instead of using the HTRF assay kit in above assay.
HyClone Fetal Bovine Serum was obtained from GE healthcare life sciences (Logan, Utah). BMP6 and BMP9 were purchased from R&D System (R&D). Anti-P-SMAD 1/5/8 rabbit mAb and anti-rabbit IgG, HRP-Linked antibody were purchased from Cell Signaling Technology (Danvers, Mass.). BioFX Chemiluminescent Ultra-Sensitive HRP Microwell Substrate ECL Reagent was obtained from SurModics (Edina, Minn.). The compound plates and the white solid MB assay plates were from Greiner Bio-one (Monroe, N.C.).
Similarly as described in above HTRF cell-based assay, this assay was performed in 384 well plate format. […] Pre-starved cells were then plated in 384 well plate in the starvation medium (containing in 0.1% FBS). After 4 hours, compound dilutions in DMSO were added to the assay plate and incubated for 30 minutes. The assay plate was then added with BMP6 for C2C12 cells or BMP9 for BAOEC cells and incubated for 30 minutes.
The cells were washed in the plate washer with PBS and blocked with 2% BSA in PBS for 1 h at room temperature on the rotator. After removing the blocking reagent, the cells were incubated with the anti-p-SMAD1 antibody in 2% BSA in PBS for overnight at 4° C. on rotator. The cells were washed with PBS in the plate washer and incubated with HRP conjugated second antibody in 2% BSA in PBS for 1 hour at room temperature. After a cell wash with PBS, ECL detection reagent was added and the plate was read in the luminesce mode in the ViewLux plate reader.

BMP4 = BMP4 HTRF assay; format: cell-based
ALK1 = ALK1 (Homo sapiens, UniProt P37023); assay: TR-FRET enzymatic ALK kinase assay, ALK1
Description: (§1) Briefly, the ALKs enzymatic assay was initiated by dispense 2.5 μl enzyme in 1× kinase reaction buffer. The assay plate was then added with compounds followed by incubation at room temperature for 10 minutes. Then 2.5 μl/well substrate was added.

ALK2 [3] = target: T2, ALK2 (Homo sapiens, UniProt Q04771); assay: TR-FRET enzymatic ALK kinase assay, ALK2
T2 sequence (Q04771 21-509): T1 sequence (P37172 21-509) with V1M, Q10P, I121L, E162D, S310P
Description: as §1

ALK1, sequence (P37023 22-503): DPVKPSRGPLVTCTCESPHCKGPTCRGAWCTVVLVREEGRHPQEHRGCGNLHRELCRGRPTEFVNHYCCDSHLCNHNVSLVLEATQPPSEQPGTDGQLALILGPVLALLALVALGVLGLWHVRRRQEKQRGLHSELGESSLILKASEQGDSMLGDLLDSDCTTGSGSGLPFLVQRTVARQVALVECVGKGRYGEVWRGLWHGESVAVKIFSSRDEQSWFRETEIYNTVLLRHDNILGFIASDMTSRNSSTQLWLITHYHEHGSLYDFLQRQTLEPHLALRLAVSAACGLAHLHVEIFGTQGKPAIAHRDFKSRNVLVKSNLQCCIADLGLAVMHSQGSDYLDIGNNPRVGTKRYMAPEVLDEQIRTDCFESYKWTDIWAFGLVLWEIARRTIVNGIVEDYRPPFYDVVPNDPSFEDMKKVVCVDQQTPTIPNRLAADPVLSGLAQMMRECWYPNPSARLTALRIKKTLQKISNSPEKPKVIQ

IC50 (ALK2 [1]; HTRF assay, BMP6 as agonist, C2C12 cells, read-out: BMP6 HTRF): 170 nM
IC50 (ALK2 [1]; cell-based assay, BMP6, read-out: Cell IC50 BMP6): 1.3 nM
IC50 (ALK2 [2]): 96 nM and 70 nM
IC50 (BMP4): 230 nM
IC50 (ALK1): 34 nM
IC50 (ALK2 [3]): 14 nM
SMILES: CC[S+](=O)([O-])c1cccc(-c2cnn3cc(-c4ccc(N5[C@H](C)CNC[C@@H]5C)cc4)cnc23)c1 [Compound 104, 6-(4-((2R,6S)-2,6-dimethylpiperazin-1-yl)phenyl)-3-(3-(ethylsulfonyl)phenyl)pyrazolo[1,5-a]pyrimidine]
